Test results: PMC6277767, “Broad and Region-Specific Impacts of the Synthetic Cannabinoid CP 55,940 in Adolescent and Adult Female Mouse Brains” (Frontiers in Molecular Neuroscience, 2018)

Tested on: CD1 female mouse brain lipidome
Assay: Brain-region lipid levels (HPLC/MS/MS lipidomics) 2 h after single i.p. 3 mg/kg CP 55,940 vs vehicle
Format: in vivo
Parameters: N-arachidonoyl phenylalanine level, Mean / N-stearoyl tryptophan level, Mean / N-stearoyl proline level, Mean / N-stearoyl leucine level, Mean / N-stearoyl phenylalanine level, Mean / N-stearoyl serine level, Mean / N-stearoyl methionine level, Mean: unit: moles per gram
Conditions: hippocampus
Procedure: The Bloomington Institutional Animal Care and Use Committee of Indiana University reviewed and approved the animal procedures. Female mice from the CD1 strain were utilized to match our study examining THC’s effects on the brain lipidome ([Leishman et al., 2018]). Mice were given a single i.p. injection of either 3 mg/kg CP or 1:1:18 cremophor:ethanol:saline vehicle (please refer to the section “3 mg/kg CP Is Relevant for Synthetic Cannabinoid Abuse and Has Stronger Effects on the Female Mouse Brain Lipidome During Adolescence” for a justification of dose and use of female mice). Three different age groups were given injections: PND 35 and PND 50 adolescents, and adult mice (PND 113). At least eight mice in each age group received CP and at least eight received vehicle. Matching the THC study time course ([Leishman et al., 2018]), mice were sacrificed via rapid decapitation 2 h after injection. Brains were immediately removed and flash-frozen in liquid nitrogen, and then stored at -80°C until dissections were performed. Brains were dissected on an ice-cold dissection plate into the following regions: STR, HIPP, CER, THAL, CTX, HYP, MID, and STEM. These abbreviations for these brain areas will be used exclusively when discussing the results generated by these specific dissections. Each dissected area was immediately placed in liquid nitrogen and then stored at -80°C until used for lipid extraction.
Tissue extracts were performed as previously described ([Bradshaw et al., 2006]; [Stuart et al., 2013]; [Raboune et al., 2014]; [Leishman et al., 2016a],[b], [2017], [2018]). First, samples were shock frozen in liquid nitrogen, weighed, and transferred to a centrifuge tube. The mass of the largest sample was multiplied by 50 to determine how many milliliters of HPLC-grade methanol (Fisher, Fair Lawn, NJ, United States) to add. Then, samples were spiked with 500 pmol deuterium-labeled NAGly (d8NAGly; Cayman Chemical, Ann Arbor, MI, United States). Samples were placed on ice in darkness for 2 h then individually homogenized and centrifuged at 19,000 × g for 20 min at 20°C. Supernatants were diluted with HPLC water (purified in house) to make a solution of 75% water, 25% supernatant. Lipids were partially purified on C18 solid phase extraction columns (Agilent, Palo Alto, CA, United States). A series of four elutions with 1.5 mL of 60%, 75%, 85%, and 100% methanol were collected ([Stuart et al., 2013]; [Leishman et al., 2016a],[b], [2018]).
As previously described ([Bradshaw et al., 2006]; [Tan et al., 2006]; [Smoum et al., 2010]; [Stuart et al., 2013]; [Tortoriello et al., 2013]; [Raboune et al., 2014]; [Leishman et al., 2016a],[b], [2017], [2018]), samples were analyzed using an Applied Biosystems API 3000 triple quadrupole mass spectrometer with electrospray ionization (Foster City, CA, United States). Using an Agilent XDB-C18 reversed phase analytical column and optimized mobile phase gradients, 20 μL from each elution were chromatographed. Two Shimadzu 10ADvp pumps (Columbia, MD, United States) provided the pressure for gradient elution. Mobile phase A: 20% methanol, 80% water (v/v) and 1 mM ammonium acetate (Sigma, St. Louis, MO, United States). Mobile phase B: 100% methanol, 1 mM ammonium acetate. Every method run began with 0% mobile phase B, reached 100% mobile phase B flowing at 0.2 mL/min, and gradually returned to 0% mobile phase B.
This screening library will be referred to as the lipidome when discussing data from this study. HPLC/MS/MS data were analyzed using Analyst software (Applied Biosystems) ([Bradshaw et al., 2006]; [Tan et al., 2006]; [Stuart et al., 2013]; [Tortoriello et al., 2013]; [Raboune et al., 2014]; [Leishman et al., 2016a],[b], [2017], [2018]). Chromatograms (Supplementary Figure 3) were generated by determining the retention time of analytes from the analytical column with a [M-1] or [M+1] parent peak and a fragmentation peak corresponding to the programmed values. […]

[1] = PND 35, 3 mg/kg CP 55,940 vs vehicle
[2] = PND 35 WT female mice, 3mg/kg CP 55,940

CCCCCCC(C)(C)c1ccc([C@@H]2C[C@H](O)CC[C@H]2CCCO)c(O)c1 [CP 55,940]
THC level, Mean (adult, 3 mg/kg CP 55,940): BDL | phosphoLEA: Direction (relative to Veh) (adult, 3 mg/kg CP 55,940): ↑ | phosphoLEA: Magnitude (x Veh level) (adult, 3 mg/kg CP 55,940): 1.45 x Veh level | 2-arachidonoyl glycerol: Direction [1]: ↓ | 2-arachidonoyl glycerol: Magnitude [1]: 0.79 | 2-linoleoyl glycerol: Direction [1]: ↓ | 2-linoleoyl glycerol: Magnitude [1]: 0.63 | 2-oleoyl glycerol: Direction [1]: ↓ | 2-oleoyl glycerol: Magnitude [1]: 0.82 | 6-ketoPGF1α: Direction [1]: ↑ | 6-ketoPGF1α: Magnitude [1]: 1.32 | Arachidonic acid: Direction [1]: ↓ | Arachidonic acid: Magnitude [1]: 0.84 | Linoleic acid: Direction [1]: ↓ | Linoleic acid: Magnitude [1]: 0.77 | N-arachidonoyl GABA: Direction [1]: ↓ | N-arachidonoyl GABA: Magnitude [1]: 0.66 | N-arachidonoyl alanine: Direction [1]: ↓ | N-arachidonoyl alanine: Magnitude [1]: 0.76 | N-arachidonoyl ethanolamine: Direction [1]: ↓ | N-arachidonoyl ethanolamine: Magnitude [1]: 0.82 | N-arachidonoyl glycine: Direction [1]: ↓ | N-arachidonoyl glycine: Magnitude [1]: 0.86 | N-arachidonoyl phenylalanine: Direction [1]: ↓ | N-arachidonoyl phenylalanine: Magnitude [1]: 0.76 | N-arachidonoyl serine: Direction [1]: ↓ | N-arachidonoyl serine: Magnitude [1]: 0.49 | N-arachidonoyl taurine: Direction [1]: ↓ | N-arachidonoyl taurine: Magnitude [1]: 0.81 | N-docosahexaenoyl GABA: Direction [1]: ↓ | N-docosahexaenoyl GABA: Magnitude [1]: 0.52 | N-docosahexaenoyl alanine: Direction [1]: ↓ | N-docosahexaenoyl alanine: Magnitude [1]: 0.76 | N-docosahexaenoyl ethanolamine: Direction [1]: ↓ | N-docosahexaenoyl ethanolamine: Magnitude [1]: 0.71 | N-docosahexaenoyl glycine: Direction [1]: ↓ | N-docosahexaenoyl glycine: Magnitude [1]: 0.83 | N-docosahexaenoyl leucine: Direction [1]: ↑ | N-docosahexaenoyl leucine: Magnitude [1]: 1.41 | N-docosahexaenoyl serine: Direction [1]: ↓ | N-docosahexaenoyl serine: Magnitude [1]: 0.74 | N-linoleoyl GABA: Direction [1]: ↓ | N-linoleoyl GABA: Magnitude [1]: 0.55 | N-linoleoyl alanine: Direction [1]: ↓ | N-linoleoyl alanine: Magnitude [1]: 0.82 | N-oleoyl GABA: Direction [1]: ↓ | N-oleoyl GABA: Magnitude [1]: 0.59 | N-oleoyl alanine: Direction [1]: ↓ | N-oleoyl alanine: Magnitude [1]: 0.75 | N-oleoyl ethanolamine: Direction [1]: ↓ | N-oleoyl ethanolamine: Magnitude [1]: 0.77 | N-oleoyl glycine: Direction [1]: ↓ | N-oleoyl glycine: Magnitude [1]: 0.87 | N-oleoyl methionine: Direction [1]: ↓ | N-oleoyl methionine: Magnitude [1]: 0.68 | N-oleoyl valine: Direction [1]: ↑ | N-oleoyl valine: Magnitude [1]: 1.27 | N-palmitoyl alanine: Direction [1]: ↓ | N-palmitoyl alanine: Magnitude [1]: 0.85 | N-palmitoyl ethanolamine: Direction [1]: ↓ | N-palmitoyl ethanolamine: Magnitude [1]: 0.79 | N-palmitoyl leucine: Direction [1]: ↑ | N-palmitoyl leucine: Magnitude [1]: 1.31 | N-palmitoyl phenylalanine: Direction [1]: ↑ | N-palmitoyl phenylalanine: Magnitude [1]: 1.26 | N-palmitoyl tyrosine: Direction [1]: ↑ | N-palmitoyl tyrosine: Magnitude [1]: 1.29 | N-palmitoyl valine: Direction [1]: ↑ | N-palmitoyl valine: Magnitude [1]: 1.24 | N-stearoyl GABA: Direction [1]: ↓ | N-stearoyl GABA: Magnitude [1]: 0.77 | N-stearoyl alanine: Direction [1]: ↓ | N-stearoyl alanine: Magnitude [1]: 0.79 | N-stearoyl glycine: Direction [1]: ↓ | N-stearoyl glycine: Magnitude [1]: 0.87 | N-stearoyl valine: Direction [1]: ↑ | N-stearoyl valine: Magnitude [1]: 1.39 | Oleic acid: Direction [1]: ↓ | Oleic acid: Magnitude [1]: 0.82 | PGF2α: Direction [1]: ↑ | PGF2α: Magnitude [1]: 1.28 | 2-arachidonoyl glycerol level, Mean [2]: 2.47E-10 | 2-linoleoyl glycerol level, Mean [2]: 1.2E-10 | 2-oleoyl glycerol level, Mean [2]: 9.43E-10 | 2-palmitoyl glycerol level, Mean [2]: 7.71E-10 | 6-ketoPGF1α level, Mean [2]: 1.92E-11 | 11-OH-THC level, Mean [2]: BDL | 11-nor-9-carboxyTHC level, Mean [2]: BDL | Arachidonic acid level, Mean [2]: 4.25E-09 | Cannabidiol level, Mean [2]: BDL | Linoleic acid level, Mean [2]: 9.72E-10 | N- stearoyl valine level, Mean [2]: 8.48E-13 | N-arachidonoyl GABA level, Mean [2]: 2.17E-11 | N-arachidonoyl alanine level, Mean [2]: 1.79E-11 | N-arachidonoyl dopamine level, Mean [2]: BDL | N-arachidonoyl ethanolamine level, Mean [2]: 4.75E-11 | N-arachidonoyl glycine level, Mean [2]: 6.69E-11 | N-arachidonoyl methionine level, Mean [2]: PISSR | N-arachidonoyl phenylalanine level, Mean [2]: 1.21E-12 | N-arachidonoyl proline level, Mean [2]: BDL | N-arachidonoyl serine level, Mean [2]: 8.58E-12 | N-arachidonoyl taurine level, Mean [2]: 2.18E-10
